Key:
[1] = tested on: Amaranthus palmeri cytosolic GS1.1 A163Y; assay: GS enzyme inhibition assay, GS1.1 A163Y; assay type: biochemical
Procedure: (§1) GS activity was determined spectrophotometrically following the Sigma‐Aldrich enzymatic assay protocol. The reaction couples the ATP‐dependent conversion of L‐glutamate and ammonium to L‐glutamine with pyruvate kinase (PK) and L‐lactate dehydrogenase (LDH), such that oxidation of β‐NADH to β‐NAD^+ can be monitored at 340 nm. Recombinant GS from A. palmeri was expressed in E. coli, purified by affinity chromatography, and quantified by the Bradford method using bovine serum albumin as standard. […] Reaction mixtures were equilibrated to 37°C and initiated by the addition of enzyme, and the decrease in absorbance at 340 nm was recorded for 5–10 min; only the linear portion of the curve was used for activity calculations. […] Activity was calculated using an extinction coefficient for NADH of 6.22 mM^−1 cm^−1 and expressed as units per mg protein, where one unit corresponds to the formation of 1 μmol of L‐glutamine in […] at pH 7.1 and 37 °C. […] Percent inhibition was calculated relative to untreated (positive) and no‐enzyme (negative) controls. […] Resistance factors were calculated by dividing the IC₅₀ of each mutant variant by that of wild‐type GS.

[2] = tested on: Amaranthus palmeri cytosolic GS1.1 C159H; assay: GS enzyme inhibition assay, GS1.1 C159H; assay type: biochemical
Procedure: as §1

[3] = tested on: Amaranthus palmeri cytosolic GS1.1 R291P; assay: GS enzyme inhibition assay, GS1.1 R291P; assay type: biochemical
Procedure: as §1

[4] = tested on: Amaranthus palmeri cytosolic GS1.1 R316E; assay: GS enzyme inhibition assay, GS1.1 R316E; assay type: biochemical
Procedure: as §1

[5] = tested on: Amaranthus palmeri cytosolic GS1.1 E192D; assay: GS enzyme inhibition assay, GS1.1 E192D; assay type: biochemical
Procedure: as §1

[6] = tested on: GFA‐resistant E. indica population; design: method as in ref 10 = [10]; 10 Jalaludin A , Ngim J , Bakar BH and Alias Z , Preliminary findings of potentially resistant goosegrass ( Eleusine indica ) to glufosinate ammonium in Malaysia . Weed Biol Manage 10 : 256 – 260 ( 20); conditions: cited from earlier work
[7] = tested on: Amaranthus palmeri cytosolic GS1.1 R311L; assay: GS enzyme inhibition assay, GS1.1 R311L; assay type: biochemical
Procedure: as §1

[8] = tested on: Amaranthus palmeri cytosolic GS1.1 G245S; assay: GS enzyme inhibition assay, GS1.1 G245S; assay type: biochemical
Procedure: as §1

[9] = tested on: Amaranthus palmeri cytosolic GS1.1 E297A; assay: GS enzyme inhibition assay, GS1.1 E297A; assay type: biochemical
Procedure: as §1

[10] = tested on: Amaranthus palmeri cytosolic GS1.1 S174E; assay: GS enzyme inhibition assay, GS1.1 S174E; assay type: biochemical
Procedure: as §1

[11] = tested on: Amaranthus palmeri cytosolic GS1.1 R38E; assay: GS enzyme inhibition assay, GS1.1 R38E; assay type: biochemical
Procedure: as §1

[12] = tested on: Amaranthus palmeri cytosolic GS1.1 H249N; assay: GS enzyme inhibition assay, GS1.1 H249N; assay type: biochemical
Procedure: as §1

[13] = molecular target: Eleusine indica GS1.1 S59G; assay: GS enzyme inhibition assay, ELEIN GS1.1 S59G; assay type: biochemical
[14] = tested on: Amaranthus palmeri cytosolic GS1.1 G245C; assay: GS enzyme inhibition assay, GS1.1 G245C; assay type: biochemical
Procedure: as §1

[15] = tested on: Amaranthus palmeri cytosolic GS1.1 T60Q; assay: GS enzyme inhibition assay, GS1.1 T60Q; assay type: biochemical
Procedure: as §1

[16] = tested on: Amaranthus palmeri cytosolic GS1.1 Y158T; assay: GS enzyme inhibition assay, GS1.1 Y158T; assay type: biochemical
Procedure: as §1

[17] = tested on: Amaranthus palmeri cytosolic GS1.1 D56C; assay: GS enzyme inhibition assay, GS1.1 D56C; assay type: biochemical
Procedure: as §1

[18] = tested on: Amaranthus palmeri cytosolic GS1.1 E192Q; assay: GS enzyme inhibition assay, GS1.1 E192Q; assay type: biochemical
Procedure: as §1

[19] = tested on: Amaranthus palmeri cytosolic GS1.1 A309Y; assay: GS enzyme inhibition assay, GS1.1 A309Y; assay type: biochemical
Procedure: as §1

[20] = tested on: Amaranthus palmeri cytosolic GS1.1 G160T; assay: GS enzyme inhibition assay, GS1.1 G160T; assay type: biochemical
Procedure: as §1

[21] = tested on: Amaranthus palmeri cytosolic GS1.1 V161S; assay: GS enzyme inhibition assay, GS1.1 V161S; assay type: biochemical
Procedure: as §1

[22] = tested on: Amaranthus palmeri cytosolic GS1.1 R291S; assay: GS enzyme inhibition assay, GS1.1 R291S; assay type: biochemical
Procedure: as §1

[23] = tested on: Amaranthus palmeri cytosolic GS1.1 K165V; assay: GS enzyme inhibition assay, GS1.1 K165V; assay type: biochemical
Procedure: as §1

[24] = tested on: Amaranthus palmeri cytosolic GS1.1 E131A; assay: GS enzyme inhibition assay, GS1.1 E131A; assay type: biochemical
Procedure: as §1

[25] = tested on: Amaranthus palmeri cytosolic GS1.1 R291H; assay: GS enzyme inhibition assay, GS1.1 R291H; assay type: biochemical
Procedure: as §1

[26] = tested on: Amaranthus palmeri cytosolic GS1.1 E131V; assay: GS enzyme inhibition assay, GS1.1 E131V; assay type: biochemical
Procedure: as §1

[27] = tested on: Amaranthus palmeri cytosolic GS1.1 K36A; assay: GS enzyme inhibition assay, GS1.1 K36A; assay type: biochemical
Procedure: as §1

[28] = tested on: Amaranthus palmeri cytosolic GS1.1 H249L; assay: GS enzyme inhibition assay, GS1.1 H249L; assay type: biochemical
Procedure: as §1

[29] = read-out: Glufosinate‐ammonium IC50

**Q.** With `CP(=O)(O)CCC(N)C(=O)O` (stereo not drawn) [Glufosinate‐ammonium] as the compound, how does the “Resistance index (RI)” value ([1]; IC50 variant / IC50 WT) read?
**A.** Its value is 2.5.

**Q.** What about the IC50 [1, 29] of the same compound?
**A.** The IC50 was 54 µM.

**Q.** And the “Resistance index (RI)” value ([2]; IC50 variant / IC50 WT)?
**A.** The value was 186.5.

**Q.** And the IC50 [2, 29]?
**A.** Its IC50 is 4050 µM.

**Q.** And the “Glufosinate‐ammonium % Inhibition at saturation 10 000 μM” value (from here on “Glufosinate‐ammonium % Inhibition”) ([3]; 10 000 μM)?
**A.** Its value is 0%.

**Q.** And the IC50 [3, 29]?
**A.** The IC50 was > 10000 µM.

**Q.** And the “Resistance index (RI)” value ([4]; IC50 variant / IC50 WT)?
**A.** Its value is 9.1.

**Q.** What about the IC50 [4, 29] of the same compound?
**A.** Its IC50 is 197 µM.

**Q.** And the “Glufosinate‐ammonium % Inhibition” value ([5]; 10 000 μM)?
**A.** Its value is 0%.

**Q.** And the IC50 [5, 29]?
**A.** Its IC50 is > 10000 µM.

**Q.** And the resistance [6]?
**A.** The resistance was “up to 20 fold”.

**Q.** And the “Glufosinate‐ammonium % Inhibition” value ([7]; 10 000 μM)?
**A.** The value was 14%.

**Q.** What about the IC50 [7, 29] of the same compound?
**A.** Its IC50 is > 10000 µM.

**Q.** And the “Glufosinate‐ammonium % Inhibition” value ([8]; 10 000 μM)?
**A.** The value was 9%.

**Q.** What about the IC50 [8, 29] of the same compound?
**A.** The IC50 was > 10000 µM.

**Q.** And the “Resistance index (RI)” value ([9]; IC50 variant / IC50 WT)?
**A.** The value was 0.3.

**Q.** And the IC50 [9, 29]?
**A.** The IC50 was 6.9 µM.

**Q.** What about the “Resistance index (RI)” value ([10]; IC50 variant / IC50 WT) of the same compound?
**A.** The value was 0.0.

**Q.** And the IC50 [10, 29]?
**A.** The IC50 was 1 µM.

**Q.** And the “Resistance index (RI)” value ([11]; IC50 variant / IC50 WT)?
**A.** The value was 0.2.

**Q.** And the IC50 [11, 29]?
**A.** Its IC50 is 4.8 µM.

**Q.** And the “Glufosinate‐ammonium % Inhibition” value ([12]; 10 000 μM)?
**A.** The value was 17%.

**Q.** And the IC50 [12, 29]?
**A.** Its IC50 is > 10000 µM.

**Q.** What about the IC50 [13] of the same compound?
**A.** The IC50 was 19 µM.

**Q.** And the “Glufosinate‐ammonium % Inhibition” value ([14]; 10 000 μM)?
**A.** The value was 0%.

**Q.** And the IC50 [14, 29]?
**A.** Its IC50 is > 10000 µM.

**Q.** And the “Resistance index (RI)” value ([15]; IC50 variant / IC50 WT)?
**A.** Its value is 16.9.

**Q.** And the IC50 [15, 29]?
**A.** Its IC50 is 366 µM.

**Q.** And the “Resistance index (RI)” value ([16]; IC50 variant / IC50 WT)?
**A.** The value was 3.5.

**Q.** And the IC50 [16, 29]?
**A.** The IC50 was 76 µM.

**Q.** What about the “Resistance index (RI)” value ([17]; IC50 variant / IC50 WT) of the same compound?
**A.** Its value is 0.2.

**Q.** What about the IC50 [17, 29] of the same compound?
**A.** The IC50 was 3.9 µM.

**Q.** And the “Glufosinate‐ammonium % Inhibition” value ([18]; 10 000 μM)?
**A.** The value was 0%.

**Q.** What about the IC50 [18, 29] of the same compound?
**A.** The IC50 was > 10000 µM.

**Q.** What about the “Resistance index (RI)” value ([19]; IC50 variant / IC50 WT) of the same compound?
**A.** The value was 799.7.

**Q.** And the IC50 ([19]; read-out: Glufosinate‐ammonium IC50 (converted))?
**A.** Its IC50 is 17400 µM.

**Q.** What about the “Resistance index (RI)” value ([20]; IC50 variant / IC50 WT) of the same compound?
**A.** The value was 18.7.

**Q.** And the IC50 [20, 29]?
**A.** Its IC50 is 405 µM.

**Q.** And the “Resistance index (RI)” value ([21]; IC50 variant / IC50 WT)?
**A.** The value was 1.8.

**Q.** What about the IC50 [21, 29] of the same compound?
**A.** The IC50 was 39 µM.

**Q.** And the “Glufosinate‐ammonium % Inhibition” value ([22]; 10 000 μM)?
**A.** The value was 0.3%.

**Q.** What about the IC50 [22, 29] of the same compound?
**A.** The IC50 was > 10000 µM.

**Q.** And the “Resistance index (RI)” value ([23]; IC50 variant / IC50 WT)?
**A.** Its value is 1.5.

**Q.** And the IC50 [23, 29]?
**A.** The IC50 was 33 µM.

**Q.** What about the “Glufosinate‐ammonium % Inhibition” value ([24]; 10 000 μM) of the same compound?
**A.** The value was 8.5%.

**Q.** And the IC50 [24, 29]?
**A.** The IC50 was > 10000 µM.

**Q.** And the “Glufosinate‐ammonium % Inhibition” value ([25]; 10 000 μM)?
**A.** The value was 0%.

**Q.** What about the IC50 [25, 29] of the same compound?
**A.** Its IC50 is > 10000 µM.

**Q.** And the “Glufosinate‐ammonium % Inhibition” value ([26]; 10 000 μM)?
**A.** Its value is 6.6%.

**Q.** What about the IC50 [26, 29] of the same compound?
**A.** Its IC50 is > 10000 µM.

**Q.** And the “Resistance index (RI)” value ([27]; IC50 variant / IC50 WT)?
**A.** Its value is 11.5.

**Q.** What about the IC50 [27, 29] of the same compound?
**A.** The IC50 was 248 µM.

**Q.** And the “Glufosinate‐ammonium % Inhibition” value ([28]; 10 000 μM)?
**A.** The value was 7.8%.

**Q.** And the IC50 [28, 29]?
**A.** The IC50 was > 10000 µM.
